PMC6757289, “Design and Characterization of SGK3-PROTAC1, an Isoform Specific SGK3 Kinase PROTAC Degrader” (ACS Chemical Biology, 2019)

Experiments:
Type in all cases: cell-based
[1] = target: T1, SGK3 (Homo sapiens, UniProt Q96BR1); assay: SGK3 degradation in CAMA-1 cells, immunoblot; settings: for SGK3 expression: CAMA-1, 5 days 1 μM GDC0941 or AZD5363, 0.3 μM for 5 days or 8 h
T1 sequence (Q96BR1 1-496): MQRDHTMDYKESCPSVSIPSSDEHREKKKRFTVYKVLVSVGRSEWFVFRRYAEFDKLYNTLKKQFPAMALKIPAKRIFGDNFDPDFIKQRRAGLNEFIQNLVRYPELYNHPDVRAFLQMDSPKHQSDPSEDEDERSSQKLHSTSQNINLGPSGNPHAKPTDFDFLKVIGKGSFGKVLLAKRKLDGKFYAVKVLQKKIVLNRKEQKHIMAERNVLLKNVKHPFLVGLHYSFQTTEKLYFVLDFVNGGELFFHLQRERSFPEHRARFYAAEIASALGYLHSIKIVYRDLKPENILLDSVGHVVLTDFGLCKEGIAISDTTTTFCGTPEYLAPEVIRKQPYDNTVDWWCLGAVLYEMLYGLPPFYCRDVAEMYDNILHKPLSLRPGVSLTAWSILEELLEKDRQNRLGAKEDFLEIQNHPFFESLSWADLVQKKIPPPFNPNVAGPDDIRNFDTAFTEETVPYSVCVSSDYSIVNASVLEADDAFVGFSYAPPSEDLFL
Method: (§1) Figure 3 Characterization of cellular activities of SGK3-PROTAC1 and cisSGK3-PROTAC1. (A) HEK293 cells were first treated for 8 h with 0.03–3 μM SGK3-PROTAC1 and cisSGK3-PROTAC1. One hour before lysis, cells were treated with 3 μM AZD5363. Lysates were subjected to immunoblot analysis with the indicated antibodies. […] Lysates were subjected to immunoblot analysis with the indicated antibodies. (C) HEK293 cells were treated for up to 48 h with SGK3-PROTAC1 (0.3 μM), and lysates were analyzed by immunoblot analysis using the indicated antibodies. (D) HEK293 cells were treated for 24 h with SGK3-PROTAC1. Cells were washed three times with DMEM to wash out the compound, and recovery of SGK3 expression protein was analyzed by immunoblot analysis. (E–G) As in A except that CAMA-1 (E), ZR-75-1 (F), and JIMT-1 (G) cells were employed rather than HEK293 cells.
Figure 5 SGK3-PROTAC1-mediated degradation of SGK3 inhibits Akt-independent activation of mTORC1 in cancer cell lines treated with Akt or PI3K inhibitors. CAMA-1 (A, C) or ZR-75-1 (B, D) were treated for 5 days with 1 μM GDC0941 (A, B) or 1 μM AZD5363 (C, D). Cells were treated with the compounds indicated for either 5 days or 8 h before lysis; cells were treated with the compounds indicated. Cell lysates were subject to immunoblot analysis with the indicated antibodies.
(§2) All cell treatments were carried out as described in figure legends, to a final DMSO concentration of 0.1% (v/v). Lysates were quantified. Immunoblotting was performed using standard procedures, described in brief below. Lysate concentration was quantified by Bradford Assay, and 10 μg of lysate was loaded in the LDS sample buffer for SDS-PAGE electrophoresis on Novex 4–12% Bis–Tris gels. Proteins were electrophoretically transferred onto nitrocellulose membranes (Amersham Protran 0.45 μm NC; GE Healthcare) at 80 V for 80 min on ice in transfer buffer. Transferred membranes were blocked with 5% (w/v) nonfat dry milk dissolved in TBS-T [20 mM Tris/HCl, pH 7.5, 150 mM NaCl, and 0.1% (v/v) Tween 20] at RT for 30 min, before incubation with the primary antibody overnight at 4 °C. The signal was produced with near-infrared secondary antibodies and detected using a Licor Biosciences Odyssey System, and the signal was quantified in Image Studio Lite.

[2] = target: T2, SGK1 (Homo sapiens, UniProt O00141); assay: SGK1 degradation in JIMT1 cells, immunoblot; settings: JIMT1, up to 3 μM
T2 sequence (O00141 1-431): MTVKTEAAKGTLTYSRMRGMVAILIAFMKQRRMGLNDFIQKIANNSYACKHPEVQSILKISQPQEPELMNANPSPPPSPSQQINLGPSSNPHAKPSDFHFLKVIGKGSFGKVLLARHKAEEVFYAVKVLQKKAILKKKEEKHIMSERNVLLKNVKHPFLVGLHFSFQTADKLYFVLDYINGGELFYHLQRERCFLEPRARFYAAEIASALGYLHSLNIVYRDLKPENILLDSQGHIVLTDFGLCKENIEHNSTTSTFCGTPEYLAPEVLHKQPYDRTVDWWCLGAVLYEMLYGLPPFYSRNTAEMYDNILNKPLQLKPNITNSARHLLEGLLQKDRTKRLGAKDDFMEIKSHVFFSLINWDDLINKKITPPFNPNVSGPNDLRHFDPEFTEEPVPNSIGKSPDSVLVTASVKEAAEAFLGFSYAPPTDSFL
Method: as §1, with “cells. […]” for “cells.”
All cell treatments were carried out as described in figure legends, to a final DMSO concentration of 0.1% (v/v). Lysates were quantified. […] Lysate concentration was quantified by Bradford Assay, and 10 μg of lysate was loaded in the LDS sample buffer for SDS-PAGE electrophoresis on Novex 4–12% Bis–Tris gels. […] The signal was produced with near-infrared secondary antibodies and detected using a Licor Biosciences Odyssey System, and the signal was quantified in Image Studio Lite.

[3] = target: S6K1 (Homo sapiens, UniProt P23443); assay: S6K1 protein level in HEK293 cells, immunoblot; parameters: reduced endogenous SGK isoform or S6K1 expression when administered to HEK293 cells for 48 h; endogenous in cells; host or cells: HEK293
Method: A medium length linker composed of three PEG units was used in the first instance (Figure 1B and C). […] After 48 h of PROTAC treatment, cell lysates were analyzed by immunoblot analysis, and protein expression under each condition was quantified relative to the DMSO-only control. […] DAT1 reduced SGK3 expression by 60% at 1 μM and 75% at 10 μM after 48 h (Figure 1D). […] As expected, inhibition of CUL2 neddylation by means of the inhibitor MLN4924 (3 μM) or proteasome inhibition (MG132, 50 μM) blocked DAT1-induced degradation of SGK3 (Figure S1C).
as §2

Chain of S6K1 (P23443 whole entry, canonical isoform): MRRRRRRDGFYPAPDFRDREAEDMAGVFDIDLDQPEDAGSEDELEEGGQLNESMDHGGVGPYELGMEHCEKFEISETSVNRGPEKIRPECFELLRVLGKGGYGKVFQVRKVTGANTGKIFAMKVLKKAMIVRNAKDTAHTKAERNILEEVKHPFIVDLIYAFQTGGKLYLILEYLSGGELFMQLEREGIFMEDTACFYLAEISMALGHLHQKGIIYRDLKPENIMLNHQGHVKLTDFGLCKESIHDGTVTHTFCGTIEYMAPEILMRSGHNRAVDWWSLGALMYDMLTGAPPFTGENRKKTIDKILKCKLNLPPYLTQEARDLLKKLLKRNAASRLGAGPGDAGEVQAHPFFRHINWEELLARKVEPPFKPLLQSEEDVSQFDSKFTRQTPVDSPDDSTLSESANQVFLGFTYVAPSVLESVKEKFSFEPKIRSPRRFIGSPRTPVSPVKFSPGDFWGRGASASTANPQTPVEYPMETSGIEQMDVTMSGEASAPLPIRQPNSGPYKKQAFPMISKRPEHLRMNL

Row | SMILES | concentration inducing degradation of SGK3 ([1]; CAMA-1, 8 h) | SGK3 expression [1] | degradation of SGK1 [2] | S6K1 degradation ([3]; HEK293, 8 h, doses of up to 1 μM) | S6K1 level ([3]; HEK293, 48 h, 0.1 μM) | S6K1 degradation ([3]; HEK293, 48 h, 1–10 μM) | S6K1 level ([3]; HEK293, 48 h, up to 10 μM) | degradation of SGK3 ([1]; CAMA-1, 8 h, 0.03–3 μM)
1 | Cc1ccc(F)c(S(=O)(=O)Nc2ccc(-c3nc(OC[C@H]4CN(CCCCCCOCCOCCOCC(=O)N[C@H](C(=O)N5C[C@H](O)C[C@H]5C(=O)NCc5ccc(-c6scnc6C)cc5)C(C)(C)C)CCO4)c4cn[nH]c4n3)cc2)c1 [SGK3-PROTAC1] | > 0.1 µM | substantially reduced | failed to induce degradation of SGK1 | no degradation | without effecting | moderate degradation | – | –
2 | Cc1ccc(F)c(S(=O)(=O)Nc2ccc(-c3nc(OC[C@H]4CN(CCOCCOCCOCC(=O)N[C@H](C(=O)N5C[C@H](O)C[C@H]5C(=O)NCc5ccc(-c6scnc6C)cc5)C(C)(C)C)CCO4)c4cn[nH]c4n3)cc2)c1 [DAT1] | – | – | – | – | – | – | not significantly impacted | –
3 | Cc1ccc(F)c(S(=O)(=O)Nc2ccc(-c3nc(OC[C@H]4CN(CCCCCCOCCOCCOCC(=O)N[C@H](C(=O)N5C[C@@H](O)C[C@H]5C(=O)NCc5ccc(-c6scnc6C)cc5)C(C)(C)C)CCO4)c4cn[nH]c4n3)cc2)c1 [cisSGK3-PROTAC1] | – | no significant effect | – | – | – | – | – | no impact
